Calls of active or inactive are those of the source. The rule behind the calls is not given here.
Legend:
[1] = tested on: MDA-MB-231; assay: Induction of apoptosis in human MDA-MB-231 cells assessed as viable cells at 10 uM incubated for 72 hrs by Annexin V and PI staining based flow cytometry analysis (reference value: 98.31 %); type: functional; details: read-out: Activity
[2] = Mean residence time in ICR mouse at 2 mg/kg, iv measured upto 12 hrs by LC-MS/MS analysis; type: ADME, organism-based; details: in vivo
[3] = target: Histone-lysine N-methyltransferase EHMT1/EHMT2 (Homo sapiens) (UniProt Q9H9B1+Q96KQ7); assay: Inhibition of G9a/GLP in human MDA-MB-231 cells assessed as reduction in H3K9 dimethylation at 20 uM incubated for 1 day followed by compound washout and measured after 1 to 4 days; type: cell-based
[4] = target: T1, Histone-lysine N-methyltransferase EHMT1 (Homo sapiens) (UniProt Q9H9B1); assay: Inhibition of GLP (unknown origin) at 1 uM
T1 sequence (whole entry): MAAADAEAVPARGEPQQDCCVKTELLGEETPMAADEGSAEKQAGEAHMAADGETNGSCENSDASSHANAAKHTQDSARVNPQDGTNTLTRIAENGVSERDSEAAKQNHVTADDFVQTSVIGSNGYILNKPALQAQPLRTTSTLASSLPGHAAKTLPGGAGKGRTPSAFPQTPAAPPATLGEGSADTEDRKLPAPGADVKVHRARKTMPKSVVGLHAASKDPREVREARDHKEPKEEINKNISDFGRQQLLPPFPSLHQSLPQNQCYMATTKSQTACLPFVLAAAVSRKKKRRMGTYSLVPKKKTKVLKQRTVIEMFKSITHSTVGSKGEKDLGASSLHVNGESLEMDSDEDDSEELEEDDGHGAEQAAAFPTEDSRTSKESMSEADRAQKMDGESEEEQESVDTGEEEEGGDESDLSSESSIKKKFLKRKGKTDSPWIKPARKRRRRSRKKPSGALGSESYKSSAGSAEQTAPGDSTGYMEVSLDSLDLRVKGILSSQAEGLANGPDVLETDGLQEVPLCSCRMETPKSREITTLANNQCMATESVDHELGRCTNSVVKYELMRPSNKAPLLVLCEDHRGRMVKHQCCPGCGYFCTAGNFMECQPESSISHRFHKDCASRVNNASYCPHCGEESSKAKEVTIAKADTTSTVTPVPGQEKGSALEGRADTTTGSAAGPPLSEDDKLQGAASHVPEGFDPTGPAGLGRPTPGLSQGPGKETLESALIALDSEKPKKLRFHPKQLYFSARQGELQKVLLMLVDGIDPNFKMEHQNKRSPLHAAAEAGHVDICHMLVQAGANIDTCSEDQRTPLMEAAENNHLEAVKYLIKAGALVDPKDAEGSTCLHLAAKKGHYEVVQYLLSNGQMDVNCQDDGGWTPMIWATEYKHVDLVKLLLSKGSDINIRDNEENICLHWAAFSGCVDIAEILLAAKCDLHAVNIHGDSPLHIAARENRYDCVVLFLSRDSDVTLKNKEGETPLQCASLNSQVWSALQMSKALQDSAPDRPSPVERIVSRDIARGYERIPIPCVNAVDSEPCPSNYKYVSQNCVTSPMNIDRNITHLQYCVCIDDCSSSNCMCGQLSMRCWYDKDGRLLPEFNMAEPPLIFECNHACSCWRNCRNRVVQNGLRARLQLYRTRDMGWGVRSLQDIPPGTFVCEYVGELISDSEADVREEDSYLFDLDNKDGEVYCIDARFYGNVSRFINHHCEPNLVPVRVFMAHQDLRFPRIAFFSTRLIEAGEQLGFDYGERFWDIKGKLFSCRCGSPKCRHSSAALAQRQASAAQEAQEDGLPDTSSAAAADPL

[5] = tested on: MDA-MB-231; assay: Inhibition of colony formation in human MDA-MB-231 cells at 1 to 10 uM refreshed every 4 days for 12 days by crystal violet staining based assay; type: functional, cell-based; details: dose 1-10 µM, time 12.0 day
[6] = Cytotoxicity against human L02 cells assessed as reduction in cell viability incubated for 2 days by MTT assay; type: toxicity, cell-based
[7] = tested on: MDA-MB-231; assay: Antiproliferative activity against human MDA-MB-231 cells at 1 to 5 nM by MTT assay; type: functional, cell-based; details: dose 1-5 nM, time 3-5 day, TDE = time-dependent effect
[8] = tested on: MDA-MB-231; assay: Induction of apoptosis in human MDA-MB-231 cells assessed as necrotic cells at 20 uM incubated for 72 hrs by Annexin V and PI staining based flow cytometry analysis (reference value: 0.32 %); type: functional
[9] = tested on: 4T1; assay: Antiproliferative activity against mouse 4T1 cells incubated for 3 to 5 days by MTT assay; type: functional, cell-based; details: Mus musculus, 4T1; read-out: IC50
[10] = tested on: MDA-MB-231; assay: Induction of apoptosis in human MDA-MB-231 cells assessed as late apoptotic cells at 20 uM incubated for 72 hrs by Annexin V and PI staining based flow cytometry analysis (reference value: 0.45 %); type: functional
[11] = tested on: MDA-MB-231; assay: Induction of apoptosis in human MDA-MB-231 cells assessed as necrotic cells at 5 uM incubated for 72 hrs by Annexin V and PI staining based flow cytometry analysis (reference value: 0.32 %); type: functional
[12] = Tmax in ICR mouse at 2 mg/kg, iv measured upto 12 hrs by LC-MS/MS analysis; type: ADME, organism-based; details: in vivo
[13] = target: T2, Histone-lysine N-methyltransferase EHMT1 (Homo sapiens, UniProt Q9H9B1); assay: Inhibition of GLP (unknown origin)
T2 sequence (Q9H9B1 whole entry): T1 sequence (whole entry)

[14] = tested on: MDA-MB-231; assay: Induction of apoptosis in human MDA-MB-231 cells assessed as early apoptotic cells at 5 uM incubated for 72 hrs by Annexin V and PI staining based flow cytometry analysis (reference value: 0.92 %); type: functional
[15] = tested on: MDA-MB-231; assay: Induction of apoptosis in human MDA-MB-231 cells assessed as viable cells at 20 uM incubated for 72 hrs by Annexin V and PI staining based flow cytometry analysis (reference value: 98.31 %); type: functional; details: read-out: Activity
[16] = tested on: MDA-MB-231; assay: Induction of apoptosis in human MDA-MB-231 cells assessed as early apoptotic cells at 20 uM incubated for 72 hrs by Annexin V and PI staining based flow cytometry analysis (reference value: 0.92 %); type: functional
[17] = tested on: MDA-MB-231; assay: Induction of apoptosis in human MDA-MB-231 cells assessed as late apoptotic cells at 10 uM incubated for 72 hrs by Annexin V and PI staining based flow cytometry analysis (reference value: 0.45 %); type: functional
[18] = tested on: MDA-MB-231; assay: Induction of apoptosis in human MDA-MB-231 cells assessed as viable cells at 5 uM incubated for 72 hrs by Annexin V and PI staining based flow cytometry analysis (reference value: 98.31 %); type: functional; details: read-out: Activity
[19] = tested on: MDA-MB-231; assay: Induction of cell cycle arrest in human MDA-MB-231 cells assessed as accumulation of cells at G2/M phase incubated for 72 hrs by PI/RNase staining based flow cytometric analysis; type: functional; details: dose 5-20 µM
[20] = tested on: MDA-MB-231; assay: Antiproliferative activity against human MDA-MB-231 cells incubated for 3 to 5 days by MTT assay; type: functional, cell-based; details: time 3-5 day

Chain of Histone-lysine N-methyltransferase EHMT1/EHMT2 (Homo sapiens) (Q96KQ7 whole entry, looked up, one chain of several): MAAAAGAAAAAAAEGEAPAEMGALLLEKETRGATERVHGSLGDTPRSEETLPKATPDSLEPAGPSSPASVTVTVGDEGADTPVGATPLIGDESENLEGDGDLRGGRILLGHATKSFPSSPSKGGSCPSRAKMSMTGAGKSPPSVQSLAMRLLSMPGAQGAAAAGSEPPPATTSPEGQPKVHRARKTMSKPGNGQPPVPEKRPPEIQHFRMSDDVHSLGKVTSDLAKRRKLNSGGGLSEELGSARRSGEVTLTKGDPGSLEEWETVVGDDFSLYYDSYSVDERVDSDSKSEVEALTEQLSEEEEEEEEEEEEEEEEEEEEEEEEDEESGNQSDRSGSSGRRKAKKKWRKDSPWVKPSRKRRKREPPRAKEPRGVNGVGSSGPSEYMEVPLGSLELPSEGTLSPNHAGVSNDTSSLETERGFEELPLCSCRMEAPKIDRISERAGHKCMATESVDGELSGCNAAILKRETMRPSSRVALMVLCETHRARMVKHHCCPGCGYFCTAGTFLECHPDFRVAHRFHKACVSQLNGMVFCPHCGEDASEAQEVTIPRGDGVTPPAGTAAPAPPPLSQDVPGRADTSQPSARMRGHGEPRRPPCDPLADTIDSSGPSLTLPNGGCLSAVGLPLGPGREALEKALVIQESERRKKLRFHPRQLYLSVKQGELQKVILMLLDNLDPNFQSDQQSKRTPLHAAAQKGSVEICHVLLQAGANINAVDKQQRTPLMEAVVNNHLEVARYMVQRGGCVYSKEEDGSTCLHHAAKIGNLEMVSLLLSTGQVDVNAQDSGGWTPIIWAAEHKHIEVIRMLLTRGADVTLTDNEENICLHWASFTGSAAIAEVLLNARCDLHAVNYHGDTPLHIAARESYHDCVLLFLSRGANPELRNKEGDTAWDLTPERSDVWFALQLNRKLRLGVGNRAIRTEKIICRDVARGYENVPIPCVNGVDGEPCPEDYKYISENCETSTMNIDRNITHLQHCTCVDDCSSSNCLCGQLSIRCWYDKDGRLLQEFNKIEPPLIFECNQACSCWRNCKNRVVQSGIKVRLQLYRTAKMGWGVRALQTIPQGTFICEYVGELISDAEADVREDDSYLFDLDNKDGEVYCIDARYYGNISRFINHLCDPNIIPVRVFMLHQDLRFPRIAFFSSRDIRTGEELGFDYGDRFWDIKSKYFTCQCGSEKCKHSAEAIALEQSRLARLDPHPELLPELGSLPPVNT

- MRT [2]: 2.3 h
- inhibition [3]: Active
- inhibition [4]: Active
- IC50 [9]: 4.67 µM
- Tmax [12]: 0.42 h
- IC50 [13]: 0.458 µM
SMILES: C=CC(=O)Nc1cccc(-c2nc(NC3CCN(C)CC3)c3cc(OC)c(OC)cc3n2)c1
- viability at 10 µM [1]: 89.1%
- inhibition [5]: Active
- IC50 at 2 days [6]: 10.3 µM
- Activity [7]: Tde
- Activity [8]: 4.23%
- Activity [10]: 34.86%
- Activity [11]: 0.93%
- Activity [14]: 1.44%
- viability at 20 µM [15]: 39.3%
- Activity [16]: 21.6%
- Activity [17]: 5.89%
- viability at 5 µM [18]: 94.6%
- Activity [19]: Dose-Dependent Effect
- Activity [20]: Dose-Dependent Effect

— ChEMBL document CHEMBL5634121, “Discovery of novel G9a/GLP covalent inhibitors for the treatment of triple-negative breast cancer” (Eur J Med Chem, 2023)
